In patent publication US9403823B2, “Protein kinase inhibitors” (ORIBASE PHARMA, priority 2012, dated 2016):
Where two headings read alike, the source gives them in different places. Marks after values point to notes of the source that are not given here.

What was measured:
HRMEC cells = test: In vitro cell proliferation assay (MTT), HRMEC; assay type: cell-based; conditions: read-out: EC50, anti-proliferative activity
Protocol: (§1) 2) In Vitro Cell Proliferation Assays (Table 22 to Table 35)
(§2) Cancer cell lines (5×10^3 cells per well) or HUVEC (1×10^4 cells per well) or HRMEC (1×10^4 cells per well) were distributed in 96-well plates and incubating in duplicate with escalating concentrations (10 nM to 3 μM) of compounds for 72 hr. Cell proliferation was measured using MTT (3[4,5-dimethylthiazol-2-yl]-2,5-diphenyltetrazolium bromide).

A549 cell line = test: In vitro cell proliferation assay (MTT), A549; assay type: cell-based; conditions: Homo sapiens, read-out: EC50, anti-proliferative activity
Summary of the method: (§3)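 Cancer cell lines were seeded at 5×10^3 cells per well and HRMEC at 1×10^4 cells per well, then incubated in duplicate with escalating compound concentrations (10 nM to 3 μM) for 72 hr. Proliferation was read by MTT.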

HT29 cell line = test: In vitro cell proliferation assay (MTT), HT29; assay type: cell-based; conditions: Homo sapiens, read-out: EC50, anti-proliferative activity
Protocol: as §1, §2

HepG2 cell line = test: In vitro cell proliferation assay (MTT), HepG2; assay type: cell-based; conditions: Homo sapiens, HepG2, 72 h; read-out: EC50, anti-proliferative activity
Summary of the method: as §3

HUVEC = test: In vitro cell proliferation assay (MTT), HUVEC; assay type: cell-based; conditions: Homo sapiens, 72 h, read-out: EC50, anti-proliferative activity
Summary of the method: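 HUVEC cells were plated at 1×10^4 cells per well in 96-well plates and exposed in duplicate to increasing compound concentrations from 10 nM to 3 μM for 72 hr. Proliferation was then quantified with MTT (3[4,5-dimethylthiazol-2-yl]-2,5-diphenyltetrazolium bromide) to determine anti-proliferative activity.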

BxPC-3 cell line = test: In vitro cell proliferation assay (MTT), BxPC-3; assay type: cell-based; conditions: Homo sapiens, BXPC-3, 72 h; read-out: EC50, anti-proliferative activity
Protocol: as §1, §2

H1975 cell line = test: In vitro cell proliferation assay (MTT), H1975; assay type: cell-based; conditions: Homo sapiens, NCI-H1975; H1975, 72 hr, MTT; read-out: EC50, anti-proliferative activity
Protocol: as §1, §2

MDA-MB-231 cell line = test: In vitro cell proliferation assay (MTT), MDA-MB-231; assay type: cell-based; conditions: Homo sapiens, MDA-MB-231, 72 h; read-out: EC50, anti-proliferative activity
Summary of the method: as §3

FGFR2 = target: T1, FGFR2 (Homo sapiens, UniProt P21802); test: In vitro kinase assay (Z'-LYTE), FGFR2; assay type: biochemical; conditions: read-out: % of inhibition of the kinase compared to the control
T1 construct: purchased Invitrogen
T1 sequence (P21802 22-821): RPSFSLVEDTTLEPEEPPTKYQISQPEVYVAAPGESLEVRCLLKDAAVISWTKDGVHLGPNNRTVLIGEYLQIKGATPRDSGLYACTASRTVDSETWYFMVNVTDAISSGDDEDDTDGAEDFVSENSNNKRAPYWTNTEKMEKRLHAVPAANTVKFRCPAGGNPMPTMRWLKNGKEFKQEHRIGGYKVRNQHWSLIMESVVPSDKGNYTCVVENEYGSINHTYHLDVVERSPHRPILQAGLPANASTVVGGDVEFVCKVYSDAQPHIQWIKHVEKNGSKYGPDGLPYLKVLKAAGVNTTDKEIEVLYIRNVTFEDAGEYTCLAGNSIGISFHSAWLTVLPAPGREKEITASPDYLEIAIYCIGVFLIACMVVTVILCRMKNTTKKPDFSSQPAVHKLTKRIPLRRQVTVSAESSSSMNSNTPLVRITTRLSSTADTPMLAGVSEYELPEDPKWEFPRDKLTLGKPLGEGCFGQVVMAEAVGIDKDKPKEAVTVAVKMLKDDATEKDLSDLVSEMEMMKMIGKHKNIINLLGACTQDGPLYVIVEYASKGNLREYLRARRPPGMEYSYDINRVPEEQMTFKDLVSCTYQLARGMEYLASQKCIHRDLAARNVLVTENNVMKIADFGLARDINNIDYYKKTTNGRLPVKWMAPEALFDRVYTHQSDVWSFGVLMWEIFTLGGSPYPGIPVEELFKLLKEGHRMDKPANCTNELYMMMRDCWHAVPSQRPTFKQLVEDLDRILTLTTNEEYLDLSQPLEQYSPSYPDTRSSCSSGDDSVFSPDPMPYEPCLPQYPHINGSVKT
Summary of the method: (§4)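 FRET-based Z'-LYTE coupled-enzyme assay: kinase phosphorylates a dual-fluorophore peptide, unphosphorylated peptide is protease-cleaved, and donor/acceptor emission ratio after 400 nm excitation quantifies progress. Buffer 50 mM HEPES pH 7.5, 10 mM MgCl2, 1 mM EGTA, 0.01% BRIJ-35; 1% DMSO final. Single compound concentration: 100 nM, or 10 μM for ABL and ABL T315I.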

PC3 cell line = test: In vitro cell proliferation assay (MTT), PC3; assay type: cell-based; conditions: Homo sapiens, PC-3, 72 h; read-out: EC50, anti-proliferative activity
Protocol: as §1, §2

BRAF = target: T2, BRAF (Homo sapiens, UniProt P15056); test: In vitro kinase assay (Z'-LYTE), BRAF; assay type: biochemical; conditions: read-out: % of inhibition of the kinase compared to the control
T2 construct: purchased Invitrogen
T2 sequence (P15056 whole entry): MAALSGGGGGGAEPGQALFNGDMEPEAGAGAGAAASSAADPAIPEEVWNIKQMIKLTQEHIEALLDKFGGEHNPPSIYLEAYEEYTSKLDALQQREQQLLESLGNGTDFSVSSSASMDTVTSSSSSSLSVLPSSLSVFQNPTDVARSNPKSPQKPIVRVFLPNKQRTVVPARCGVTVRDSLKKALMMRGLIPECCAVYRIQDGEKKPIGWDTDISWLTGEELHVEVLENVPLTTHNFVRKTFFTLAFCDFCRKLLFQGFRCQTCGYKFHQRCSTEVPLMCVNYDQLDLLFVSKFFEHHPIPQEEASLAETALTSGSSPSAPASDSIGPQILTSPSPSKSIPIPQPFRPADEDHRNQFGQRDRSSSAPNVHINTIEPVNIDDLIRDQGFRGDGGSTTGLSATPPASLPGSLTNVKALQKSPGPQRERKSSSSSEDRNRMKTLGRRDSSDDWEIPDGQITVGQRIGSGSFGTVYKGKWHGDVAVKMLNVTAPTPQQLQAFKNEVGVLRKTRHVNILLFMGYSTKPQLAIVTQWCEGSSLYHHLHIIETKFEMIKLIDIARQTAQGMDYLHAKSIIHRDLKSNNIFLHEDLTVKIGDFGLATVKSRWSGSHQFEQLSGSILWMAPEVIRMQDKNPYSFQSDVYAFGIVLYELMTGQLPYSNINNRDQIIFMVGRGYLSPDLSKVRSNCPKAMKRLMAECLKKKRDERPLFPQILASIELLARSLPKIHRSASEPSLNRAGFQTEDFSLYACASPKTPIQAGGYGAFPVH
Summary of the method: as §4

HuH7 cell line = test: In vitro cell proliferation assay (MTT), HuH7; assay type: cell-based; conditions: Homo sapiens, Huh-7, 72 h; read-out: EC50, anti-proliferative activity
Protocol: as §1, §2

HepG2 cells = test: Human hepatocellular carcinoma mouse model (HepG2 xenograft); assay type: in vivo, athymic nude male mice; conditions: 20 mg/kg q.d. per os for 15 consecutive days; for Anti-tumor activity (Tumor Growth Inhibition—TGI): mice, HepG2 xenograft, end of study vs vehicle
Protocol: 3) In Vivo Studies (Table 36)
Human hepatocellular carcinoma mouse model was prepared by subcutaneously implanting HepG2 cells (1×10^7 cell/mL in sterile PBS), into the right flank of athymic nude male mice (HSD, 6-7 weeks old). When the tumor volume reached approximately 200 mm^3, mice were assigned randomly to either vehicle alone or ORB compounds treatment groups (six mice per group). Mice were treated with either vehicle (PEG400) or OR0720, OR0721, OR0811 (20 mg/kg q.d.; per os for 15 consecutive days).
Tumor volumes in mm^3 were determined three times a week with a digital caliper and calculated using the following formula: Tumor Volume (mm)=length (mm)×width (mm)×width (mm)×½. Body weight was measured three times a week, and mice were observed daily for monitoring signs of stress to detect possible toxicities. One-way ANOVA was used for statistical comparisons. Data were analyzed with Prism 5.0 b (GraphPad Software) by one-way ANOVA with Bonferroni post hoc. Tumor Growth Inhibition (TGI) is calculated as the percent decrease of tumor growth at the end of the study in the ORB compounds treatment groups in comparison to the vehicle alone treatment group.

Caki-2 = test: In vitro cell proliferation assay (MTT), Caki-2; assay type: cell-based; conditions: Homo sapiens, read-out: EC50, anti-proliferative activity
Protocol: as §1, §2

EGFR (ErbB1) = target: T3, EGFR (ErbB1) (Homo sapiens, UniProt P00533); test: In vitro kinase assay (Z'-LYTE), EGFR (ErbB1); assay type: biochemical; conditions: read-out: % of inhibition of the kinase compared to the control
T3 construct: purchased Invitrogen
T3 sequence (P00533 25-1210): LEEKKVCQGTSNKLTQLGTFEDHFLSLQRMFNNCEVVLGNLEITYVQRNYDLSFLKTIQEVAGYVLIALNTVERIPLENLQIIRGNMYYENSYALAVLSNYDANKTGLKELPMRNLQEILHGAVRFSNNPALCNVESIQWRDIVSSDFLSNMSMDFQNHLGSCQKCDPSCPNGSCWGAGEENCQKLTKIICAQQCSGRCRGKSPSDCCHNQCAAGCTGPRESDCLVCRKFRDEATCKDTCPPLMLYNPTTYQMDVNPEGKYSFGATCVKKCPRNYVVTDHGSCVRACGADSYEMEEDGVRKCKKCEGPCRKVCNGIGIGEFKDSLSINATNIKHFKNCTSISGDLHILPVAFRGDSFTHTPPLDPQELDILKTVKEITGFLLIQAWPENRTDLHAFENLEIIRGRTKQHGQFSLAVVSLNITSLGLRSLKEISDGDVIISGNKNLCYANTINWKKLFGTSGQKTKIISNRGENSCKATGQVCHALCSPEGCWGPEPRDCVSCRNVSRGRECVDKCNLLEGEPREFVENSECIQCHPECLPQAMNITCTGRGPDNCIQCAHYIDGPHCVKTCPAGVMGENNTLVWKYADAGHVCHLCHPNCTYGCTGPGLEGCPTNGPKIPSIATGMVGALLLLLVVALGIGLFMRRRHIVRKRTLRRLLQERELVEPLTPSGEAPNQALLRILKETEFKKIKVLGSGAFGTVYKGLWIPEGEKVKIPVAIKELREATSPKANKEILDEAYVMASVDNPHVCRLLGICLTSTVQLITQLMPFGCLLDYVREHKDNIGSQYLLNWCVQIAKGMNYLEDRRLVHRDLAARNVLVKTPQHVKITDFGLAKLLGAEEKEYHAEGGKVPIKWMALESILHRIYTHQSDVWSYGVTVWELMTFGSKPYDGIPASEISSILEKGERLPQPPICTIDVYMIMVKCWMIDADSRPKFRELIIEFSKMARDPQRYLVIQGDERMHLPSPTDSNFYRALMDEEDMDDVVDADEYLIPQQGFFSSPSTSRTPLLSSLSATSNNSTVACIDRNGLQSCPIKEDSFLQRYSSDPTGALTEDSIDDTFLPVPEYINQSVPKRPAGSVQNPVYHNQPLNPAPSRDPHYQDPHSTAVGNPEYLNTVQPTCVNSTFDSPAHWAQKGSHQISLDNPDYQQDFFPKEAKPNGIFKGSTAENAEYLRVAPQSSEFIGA
Summary of the method: as §4

KDR (VEGFR2) = target: T4, KDR (VEGFR2) (Homo sapiens, UniProt P35968); test: In vitro kinase assay (Z'-LYTE), KDR (VEGFR2); assay type: biochemical; conditions: read-out: % of inhibition of the kinase compared to the control
T4 construct: purchased Invitrogen
T4 sequence (P35968 20-1356): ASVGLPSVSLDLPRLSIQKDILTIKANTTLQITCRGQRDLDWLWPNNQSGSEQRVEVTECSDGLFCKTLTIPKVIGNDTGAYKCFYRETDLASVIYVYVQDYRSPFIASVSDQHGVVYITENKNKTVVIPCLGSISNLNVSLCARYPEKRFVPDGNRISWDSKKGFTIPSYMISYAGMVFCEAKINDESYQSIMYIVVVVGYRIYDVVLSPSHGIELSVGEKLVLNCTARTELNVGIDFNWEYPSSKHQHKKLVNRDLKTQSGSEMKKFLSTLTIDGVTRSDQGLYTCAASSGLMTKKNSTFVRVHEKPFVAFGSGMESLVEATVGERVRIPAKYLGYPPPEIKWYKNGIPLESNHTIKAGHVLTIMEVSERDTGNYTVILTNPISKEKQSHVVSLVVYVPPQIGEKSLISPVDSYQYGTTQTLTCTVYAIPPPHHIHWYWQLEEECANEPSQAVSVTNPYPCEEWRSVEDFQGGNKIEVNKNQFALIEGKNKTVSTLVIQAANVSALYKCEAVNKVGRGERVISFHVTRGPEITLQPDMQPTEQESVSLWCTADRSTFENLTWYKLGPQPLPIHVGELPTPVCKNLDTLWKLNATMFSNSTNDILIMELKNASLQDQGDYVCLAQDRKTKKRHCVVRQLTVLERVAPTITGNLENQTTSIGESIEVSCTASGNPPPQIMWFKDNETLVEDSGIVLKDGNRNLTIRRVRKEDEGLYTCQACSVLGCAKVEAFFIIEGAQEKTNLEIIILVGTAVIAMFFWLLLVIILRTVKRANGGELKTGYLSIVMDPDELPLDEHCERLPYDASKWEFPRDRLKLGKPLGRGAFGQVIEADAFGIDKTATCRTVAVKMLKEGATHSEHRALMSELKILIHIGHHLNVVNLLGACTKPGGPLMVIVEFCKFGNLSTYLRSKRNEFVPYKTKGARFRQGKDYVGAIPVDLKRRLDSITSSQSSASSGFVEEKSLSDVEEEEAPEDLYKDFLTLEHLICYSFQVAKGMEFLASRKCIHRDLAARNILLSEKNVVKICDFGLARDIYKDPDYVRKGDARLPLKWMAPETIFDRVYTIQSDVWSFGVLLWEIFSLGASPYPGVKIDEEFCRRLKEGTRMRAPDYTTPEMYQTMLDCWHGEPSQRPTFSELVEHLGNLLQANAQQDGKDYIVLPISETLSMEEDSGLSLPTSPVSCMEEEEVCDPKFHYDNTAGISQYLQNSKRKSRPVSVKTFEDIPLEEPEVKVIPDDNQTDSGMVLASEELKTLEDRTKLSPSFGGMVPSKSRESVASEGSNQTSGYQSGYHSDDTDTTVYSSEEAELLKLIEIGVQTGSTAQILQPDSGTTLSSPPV
Summary of the method: as §4

SRC = target: T5, SRC (Homo sapiens, UniProt P12931); test: In vitro kinase assay (Z'-LYTE), SRC; assay type: biochemical; conditions: read-out: % of inhibition of the kinase compared to the control
T5 construct: purchased Invitrogen
T5 sequence (P12931 whole entry): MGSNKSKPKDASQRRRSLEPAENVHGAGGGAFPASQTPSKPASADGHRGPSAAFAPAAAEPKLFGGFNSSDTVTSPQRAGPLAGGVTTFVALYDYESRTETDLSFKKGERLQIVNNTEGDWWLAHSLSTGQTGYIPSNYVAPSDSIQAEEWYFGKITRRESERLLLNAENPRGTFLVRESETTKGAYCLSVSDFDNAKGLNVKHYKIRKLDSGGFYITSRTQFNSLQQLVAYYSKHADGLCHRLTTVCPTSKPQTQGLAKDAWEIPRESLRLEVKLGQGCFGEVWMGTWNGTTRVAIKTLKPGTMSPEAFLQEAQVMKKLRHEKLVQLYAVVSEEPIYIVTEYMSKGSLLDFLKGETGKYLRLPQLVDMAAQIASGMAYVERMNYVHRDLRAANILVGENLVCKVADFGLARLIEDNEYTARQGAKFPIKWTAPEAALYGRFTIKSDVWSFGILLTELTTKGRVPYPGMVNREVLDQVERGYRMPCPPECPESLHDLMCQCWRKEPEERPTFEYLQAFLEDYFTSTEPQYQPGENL
Summary of the method: as §4

HuH6 Clone 5 cell line = test: In vitro cell proliferation assay (MTT), HuH6 Clone 5; assay type: cell-based; conditions: HUH-6-clone5; HuH6 Clone 5, 72 hr, MTT; read-out: EC50, anti-proliferative activity
Protocol: as §1, §2

PDGFRA (PDGFR alpha) = target: T6, PDGFRA (PDGFR alpha) (Homo sapiens, UniProt P16234); test: In vitro kinase assay (Z'-LYTE), PDGFRA; assay type: biochemical; conditions: read-out: % of inhibition of the kinase compared to the control
T6 construct: purchased Invitrogen
Summary of the method: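 Inhibition read as emission ratio (donor/acceptor, 400 nm excitation) of a FRET-labelled peptide, phosphorylation protecting it from proteolytic cleavage. Compounds tested once at 100 nM for VEGFR1 and PDGFRA, at 10 μM for ABL and ABL T315I, 1% DMSO final. ATP at previously determined apparent Km.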

EGFR (ErbB1) T790M L858R = target: T7, EGFR (ErbB1) T790M L858R (Homo sapiens, UniProt P00533, L858R/T790M); test: In vitro kinase assay (Z'-LYTE), EGFR (ErbB1) T790M L858R; assay type: biochemical; conditions: read-out: % of inhibition of the kinase compared to the control
T7 construct: purchased Invitrogen
Protocol: 1) In Vitro Kinase Assays (Table 10 to Table 21)
The inhibitory activity of the compounds on several kinases including BRAF, EGFR (ErbB1), EGFR (ErbB1) T790M L858R, FGFR2, KDR (VEGFR2), PDGFRA (PDGFR alpha), SRC and other was evaluated by Invitrogen using the Z′-LYTE® technology. Briefly, the Z′-LYTE® biochemical assay employs a fluorescence-based, coupled-enzyme format and is based on the differential sensitivity of phosphorylated and non-phosphorylated peptides to proteolytic cleavage. The peptide substrate is labeled with two fluorophores—one at each end—that make up a FRET pair. A ratiometric method, which calculates the ratio (the Emission Ratio) of donor emission to acceptor emission after excitation of the donor fluorophore at 400 nm, is used to quantitate reaction progress.
The compounds are screened in 1% DMSO (final) in the well. For 10 point titrations, 3-fold serial dilutions are conducted from the starting concentration. All Peptide/Kinase Mixtures are diluted to a 2× working concentration in the appropriate Kinase Buffer. All ATP Solutions are diluted to a 4× working concentration in Kinase Buffer (50 mM HEPES pH 7.5, 0.01% BRIJ-35, 10 mM MgCl2, 1 mM EGTA). ATP Km apparent is previously determined using a Z′-LYTE® assay.
Each compound was incubated at a concentration of 100 nM (excepted to test the activity against ABL and ABL T315I for which the compounds were incubated at a concentration of 10 μM) and the tables 10 to 21 summarize the results obtained showing the inhibitory power of a compound.

HuCCT1 cell line = test: In vitro cell proliferation assay (MTT), HuCCT1; assay type: cell-based; conditions: Homo sapiens, HuCCT-1; HuCCT1, 72 hr, MTT; read-out: EC50, anti-proliferative activity
Protocol: as §1, §2

`CC(=O)c1cc2cc(NCc3cc(NC(=O)c4ccc(CN5CC[C@H](N(C)C)C5)c(C(F)(F)F)c4)ccc3C)cnc2[nH]1` [OR0811, N-{3-[(2-Acetyl-1H-pyrrolo[2,3-b]pyridin-5-ylamino)-methyl]-4-methyl-phenyl}-4-((S)-3-dimethylamino-pyrrolidin-1-ylmethyl)-3-trifluoromethyl-benzamide] was tested. Which EC50 (HRMEC cells; 72 h) did it give?
Its EC50 is 100 to 1000 nM.

And the EC50 (A549 cell line; A549, 72 h)?
Its EC50 is 100 to 1000 nM.

What about the EC50 (HT29 cell line; HT-29, 72 h) of the same molecule?
Its EC50 is 100 to 1000 nM.

What about the EC50 (HepG2 cell line) of the same molecule?
The EC50 was at most 100 nM.

What about the EC50 (HUVEC) of the same molecule?
Its EC50 is 100 to 1000 nM.

What about the EC50 (BxPC-3 cell line) of the same molecule?
The EC50 was 100 to 1000 nM.

What about the EC50 (H1975 cell line) of the same molecule?
The EC50 was at least 1000 nM.

And the EC50 (MDA-MB-231 cell line)?
Its EC50 is 100 to 1000 nM.

And the inhibition at 0.1 µM (FGFR2)?
Its inhibition at 0.1 µM is at least 50%.

What about the EC50 (PC3 cell line) of the same molecule?
Its EC50 is 100 to 1000 nM.

What about the inhibition at 0.1 µM (BRAF) of the same molecule?
The inhibition at 0.1 µM was at least 50%.

And the EC50 (HuH7 cell line)?
The EC50 was 100 to 1000 nM.

What about the “tumor growth in xenografted mice bearing human hepatocellular carcinoma tumors” value (HepG2 cells) of the same molecule?
Its value is “significantly induced a decrease of tumor growth”.

And the “Anti-tumor activity (Tumor Growth Inhibition—TGI)” value (HepG2 cells)?
The value was 75%*.

And the EC50 (Caki-2; CAKI-2, 72 h)?
The EC50 was 100 to 1000 nM.

And the inhibition at 0.1 µM (EGFR (ErbB1))?
The inhibition at 0.1 µM was at least 50%.

And the inhibition at 0.1 µM (KDR (VEGFR2))?
The inhibition at 0.1 µM was at least 50%.

`CC(=O)c1cc2cc(NCc3cc(NC(=O)c4cncc(C(F)(F)F)c4)ccc3C)cnc2[nH]1` [OR0721, N-{3-[(2-Acetyl-1H-pyrrolo[2,3-b]pyridin-5-ylamino)-methyl]-4-methyl-phenyl}-5-trifluoromethyl-nicotinamide] was tested. Which EC50 (HRMEC cells; 72 hr, MTT) did it give?
The EC50 was at least 1000 nM.

And the inhibition at 0.1 µM (SRC)?
The inhibition at 0.1 µM was at least 50%.

What about the EC50 (A549 cell line; A549, 72 hr, MTT) of the same molecule?
Its EC50 is at least 1000 nM.

What about the EC50 (HuH6 Clone 5 cell line) of the same molecule?
The EC50 was at least 1000 nM.

What about the inhibition at 0.1 µM (PDGFRA (PDGFR alpha)) of the same molecule?
The inhibition at 0.1 µM was at least 50%.

And the EC50 (HT29 cell line; HT-29, HT29, 72 hr, MTT)?
Its EC50 is at least 1000 nM.

What about the EC50 (HepG2 cell line) of the same molecule?
Its EC50 is at most 100 nM.

And the EC50 (HUVEC)?
The EC50 was 100 to 1000 nM.

What about the EC50 (BxPC-3 cell line) of the same molecule?
Its EC50 is 100 to 1000 nM.

What about the EC50 (H1975 cell line) of the same molecule?
Its EC50 is at least 1000 nM.

What about the EC50 (MDA-MB-231 cell line) of the same molecule?
The EC50 was 100 to 1000 nM.

And the inhibition at 0.1 µM (FGFR2)?
Its inhibition at 0.1 µM is under 50%.

What about the EC50 (PC3 cell line) of the same molecule?
The EC50 was 100 to 1000 nM.

What about the inhibition at 0.1 µM (BRAF) of the same molecule?
Its inhibition at 0.1 µM is at least 50%.

What about the EC50 (HuH7 cell line) of the same molecule?
The EC50 was 100 to 1000 nM.

And the “tumor growth in xenografted mice bearing human hepatocellular carcinoma tumors” value (HepG2 cells)?
The value was “significantly induced a decrease of tumor growth”.

What about the “Anti-tumor activity (Tumor Growth Inhibition—TGI)” value (HepG2 cells) of the same molecule?
The value was 54%*.

And the EC50 (Caki-2; Caki-2, 72 hr, MTT)?
Its EC50 is at least 1000 nM.

And the inhibition at 0.1 µM (EGFR (ErbB1) T790M L858R)?
The inhibition at 0.1 µM was under 50%.

And the inhibition at 0.1 µM (EGFR (ErbB1))?
The inhibition at 0.1 µM was under 50%.

What about the EC50 (HuCCT1 cell line) of the same molecule?
The EC50 was at least 1000 nM.

What about the inhibition at 0.1 µM (KDR (VEGFR2)) of the same molecule?
The inhibition at 0.1 µM was at least 50%.
